Patent US20160256433A1, “Formulations Containing Amorphous Dapagliflozin” (SANDOZ AG, priority 2013, published 2016)
Values after ≈ are worked out from the molar mass of the structure shown. Where two headings read alike, the source gives them in different places.

How the values were obtained:
[1] = for water absorbed: at 80% relative air humidity (RH)
physchem = details: for solubility at 24 h: thermodynamic from solid
[2] = for pH of suspension after 24 hours of testing: 37° C.
[3] = medium of pH 1.2, 37 °C, pH 1.2, simulated gastric fluid
[4] = medium of pH 6.8, 37 °C, pH 6.8, aqueous buffer

| water absorbed [1] | solubility at 24 h (physchem; [3]) [µg/mL] | solubility at 24 h (physchem; [4]) [µg/mL] | solubility at 24 h (physchem; water, 37 °C) [µg/mL] | pH of suspension after 24 hours of testing ([2]; medium pH 1.2) | pH of suspension after 24 hours of testing ([2]; medium pH 6.8) | pH of suspension after 24 hours of testing ([2]; medium water) | further results | SMILES |
| --- | --- | --- | --- | --- | --- | --- | --- | --- |
| around 0.8% | 1700 (≈ 4160 µM) | 1700 (≈ 4160 µM) | 1800 (≈ 4400 µM) | 1.3 | 6.8 | 3.2 | – | CCOc1ccc(Cc2cc([C@@H]3O[C@H](CO)[C@@H](O)[C@H](O)[C@H]3O)ccc2Cl)cc1 |
| around 6% | 1200 (≈ 2930 µM) | 1200 (≈ 2930 µM) | 1200 (≈ 2930 µM) | 1.2 | 6.7 | 7.4 | water irreversibly absorbed ([1]; during the first sorption/desorption cycle): around 3%; solubility at 24 h (physchem; medium of pH 3.0, 37 °C, pH 3, aqueous buffer): 1100 µg/mL (≈ 2690 µM); solubility at 24 h (physchem; medium of pH 4.5, 37 °C, pH 4.5, aqueous buffer): 1200 µg/mL (≈ 2930 µM); solubility at 24 h (physchem; medium of pH 7.4, 37 °C, pH 7.4, aqueous buffer): 700 µg/mL (≈ 1710 µM); solubility (physchem; water): ~1000 µg/mL (≈ 2450 µM); Desciptive term (solubility) ([2]; medium pH 1.2): Slightly soluble; Desciptive term (solubility) ([2]; medium pH 3.0): Slightly soluble; pH of suspension after 24 hours of testing ([2]; medium pH 3.0): 2.9; Desciptive term (solubility) ([2]; medium pH 4.5): Slightly soluble; pH of suspension after 24 hours of testing ([2]; medium pH 4.5): 4.5; Desciptive term (solubility) ([2]; medium pH 6.8): Slightly soluble; Desciptive term (solubility) ([2]; medium pH 7.4): Very slightly soluble; pH of suspension after 24 hours of testing ([2]; medium pH 7.4): 7.2; Desciptive term (solubility) ([2]; medium water): Slightly soluble | CCOc1ccc(Cc2cc([C@@H]3OC(CO)[C@@H](O)C(O)C3O)ccc2Cl)cc1 (stereo partly drawn) [amorphous dapagliflozine, (2S,3R,4R,5S,6R)-2-[4-chloro-3-(4-ethoxybenzyl)phenyl]-6-(hydroxymethyl)tetrahydro-2H-pyran-3,4,5-triole] |
